Read-outs that look alike come from different tables or passages of the source.
Columns and labels:
[1] = test system: NF-κB; assay: 5.1 cell line + TNFα, HIV-LTR luciferase (NF-κB activation); format: cell-based; settings: for inhibition at 50 µM: read-out: Antiviral activity 5.1 + TNFα 50 µM (inhibition of NF-κB function); for specificity of NF-κB inhibition, in words: with HeLa-Tet-ON evaluation; for inhibition at 25 µM: read-out: Antiviral activity 5.1 + TNFα 25 µM (inhibition of NF-κB function)
Excerpt: (§1) In the characterization of anti-HIV activity, the effect of these coumarins on Tat and NF-κB functions has been evaluated in a similar manner as we described in a previous publication. We have used two transfected 5.1 cell lines, in which we measured NF-κB activation induced by TNFα [42] and HeLa-Tat-Luc cells, in which the HIV-1 LTR is directly activated by the HIV-1 Tat protein. Most of the compounds were submitted for further evaluation through a HeLa-Tet-ON assay in order to determine the selectivity of their action. To avoid missing compounds acting through another mechanism, all substances were also evaluated using a recombinant virus (RV) assay. In this system, a luciferase reporter gene was cloned in full-length infectious DNA. As a result, the measured luciferase activity is therefore proportional to viral replication.
(§2) The anti-HIV activity of these coumarins on Tat and NF-κB functions has been analysed. To this aim, we have used two stably transfected cell lines. The previously described 5.1 cell line is a Jurkat-derived clone stably transfected with a plasmid containing the luciferase gene under the control of HIV-LTR. In this cell clone, activation with TNFα induces NF-κB activation and subsequent HIV-1 expression. We have also analyzed the anti-HIV activity in HeLa-Tat-Luc cells, in which the HIV-1 LTR is directly activated by the HIV-1 Tat protein. A compound was considered active in one assay if it inhibited the target function by more than 50% (NF-κB) or 30% (Tat) at either 25 or 50 μM concentration. The active compounds were submitted for further evaluation through a HeLa-Tet-ON assay, as previously described. In the Hela-Tet-ON cells the luciferase expression is under control of an artificial promoter that can be activated by tetracycline. Therefore, compounds that inhibit tetracycline-induced luciferase activity were considered non-specific for luciferase-based anti-HIV assays and were not examined further, and those showing specific activity (non-inhibitors in HeLa-Tet-ON cells) were analysed using a recombinant virus (RV) assay. […] In this system, a luciferase reporter gene has been cloned in full-length infectious DNA. The measured luciferase activity is therefore directly proportional to the replication of the virus. This assay is more sensitive and reliable than classic infectious assays. Cell viability was evaluated in non-infected treated cultures following the same protocol as in the recombinant virus assay and measuring cell toxicity with a classical MTT assay. IC50 and CC50 were calculated using GraphPad Prism software [non-linear regression, log (inhibitor) vs. response].

[2] = test system: HIV-1 Tat protein; assay: HeLa-Tat-Luc cells, HIV-1 LTR activated by Tat; format: cell-based; settings: for inhibition at 50 µM: Human immunodeficiency virus 1, read-out: Antiviral activity Hela-Tat-luc 50 µM (inhibition of Tat function); for inhibition at 25 µM: Human immunodeficiency virus 1, read-out: Antiviral activity Hela-Tat-luc 25 µM (inhibition of Tat function); for anti-Tat activity and specificity, in words: HeLa-Tat-Luc and Hela-Tet-ON assays
Excerpt: as §1, §2

[3] = test system: non-infected MT-2 cells; assay: Cell viability, MTT assay in non-infected treated cultures; format: cell-based; design: Toxicity (%) CC50: unit not given here
Excerpt: as §2

[4] = test system: HIV-1; assay: Recombinant virus (RV) assay, luciferase reporter virus on MT-2 cells; format: cell-based; settings: for IC50: Human immunodeficiency virus 1, MT2, read-out: RV (VIH) IC50
Experimental: We have synthesized fourteen 3-phenylcoumarin derivatives and evaluated their anti-HIV activity. Antiviral activity was assessed on MT-2 cells infected with viral clones carrying the luciferase gene as reporter. Inhibition of HIV transcription and Tat function were tested on cells stably transfected with the HIV-LTR and Tat protein. […] The antiviral effect of the 4-hydroxycoumarin derivative 19 correlates with its specific inhibition of Tat functions, while compound 8, 3-(2-chlorophenyl)coumarin, seems to act through a mechanism unrelated to the molecular targets considered in this research.
as §1, §2

[5] = test system: tetracycline-induced luciferase activity in HeLa-Tet-ON cells; assay: HeLa-Tet-ON specificity assay; format: cell-based; design: key: S: specific; U: unspecific modes of action
Excerpt: as §1, §2

[6] = test system: HIV-1; design: method as in PMID 15911030; settings: comparison data; read-out: RV (VIH) IC50; cited from earlier work
[7] = test system: tetracycline-induced luciferase activity in HeLa-Tet-ON cells; design: method as in PMID 15911030; key: S: specific; U: unspecific modes of action; settings: comparison data; cited from earlier work
[8] = test system: non-infected MT-2 cells; design: method as in PMID 15911030; settings: comparison data; read-out: Toxicity CC50; cited from earlier work
[9] = test system: HIV-1 Tat protein; design: method as in PMID 15911030; settings: comparison data; cited from earlier work
[10] = test system: NF-κB; design: method as in PMID 15911030; settings: comparison data, cited from earlier work

| SMILES | inhibition at 50 µM [1] [%] | inhibition at 50 µM [2] [%] | Toxicity (%) CC50 ([3]; MTT, non-infected cultures) | melting point [°C] | IC50 [4] [µM] | HeLa-Tet-ON 50 µM (specific / unspecific mode of action) [5] | inhibitory activity in the NF-κB test, in words ([1]; 50 µM) | inhibition at 25 µM [2] [%] | other results |
| --- | --- | --- | --- | --- | --- | --- | --- | --- | --- |
| COc1ccc(-c2cc3ccccc3oc2=O)cc1OC [Compound 14, 3-(3,4-Dimethoxyphenyl)-2H-chromen-2-one] | -23 ± 2.9 | -25.1 ± 5.3 | >50 | 127 to 129 | > 177 |  |  |  |  |
| COc1cc(-c2cc3ccccc3oc2=O)cc(OC)c1OC [Compound 15, 3-(3,4,5-Trimethoxyphenyl)-2H-chromen-2-one] | 49.7 ± 7 | 35.1 ± 3.9 | 42.8 ± 16.2 | 122 to 124 | 62.7 ± 13.1 | U | fair inhibitory activity | 47.6 ± 6.2 | specificity of NF-κB inhibition, in words [1]: unspecific |
| O=c1oc2cc(O)ccc2cc1-c1ccccc1 [Compound 16, 7-Hydroxy-3-phenyl-2H-chromen-2-one] | 59 ± 8.2 | 17.2 ± 0.5 | >50 |  | 81.4 ± 14 | S | fair inhibitory activity |  | specificity of NF-κB inhibition, in words [1]: specific inhibitors of the NF-κB function |
| COc1ccc(-c2cc3cccc(O)c3oc2=O)cc1 [Compound 17, 8-Hydroxy-3-(4-methoxyphenyl)-2H-chromen-2-one] | 87.8 ± 9.8 | 88.3 ± 5.5 | >50 |  | 84.6 ± 12.1 | U | fair inhibitory activity | 85.7 ± 3.4 | inhibitory activity in the NF-κB test, in words ([1]; 25 μM): confirmed; inhibition at 25 µM [1]: 82.2 ± 3.1%; anti-Tat activity and specificity, in words [2]: potent though unspecific anti-Tat activity; fold lesser potent than 11 in the RV assay ([4]; relative to compound 11): 4-5 fold |
| COc1ccc2oc(=O)c(-c3ccccc3)c(O)c2c1 [Compound 18, 4-Hydroxy-6-methoxy-3-phenyl-2H-chromen-2-one] |  | 22.8 ± 3.4 |  |  | 186 ± 10.8 | S |  |  | inhibition at 50 µM ([1]; 50 µM, 5.1 Jurkat-derived cells, TNFα): -3.5 ± 0.9%; Toxicity (%) CC50 ([3]; human): >50 |
| COc1ccc2c(O)c(-c3ccccc3)c(=O)oc2c1 [Compound 19, 4-Hydroxy-7-methoxy-3-phenyl-2H-chromen-2-one] | -4.7 ± 0.3 | 55.7 ± 4.9 | >50 | 217 to 219 | 23.8 ± 1.7 | S |  | 48.9 ± 3.4 | inhibition at 25 µM [1]: -34.3 ± 5%; anti-Tat activity and specificity, in words [2]: modest, but specific inhibition |
| COc1ccc2c(Cl)c(-c3ccccc3)c(=O)oc2c1 [Compound 20, 4-Chloro-7-methoxy-3-phenyl-2H-chromen-2-one] | -21.2 ± 7 | -64.4 ± 10 | 18.4 ± 8.2 |  | > 209 |  |  |  |  |
| CC(C)=CCc1c(O)c(C(=O)C(C)C)c(O)c2c(-c3ccccc3)cc(=O)oc12 [Mesuol] |  |  |  |  |  |  |  |  | IC50 [6]: 2.5 µM; HeLa-Tet-ON 50 µM (specific / unspecific) [7]: S; CC50 [8]: > 4 µM; Antiviral activity Hela-Tat-luc 50 µM [9]: 71.3 ± 8.9%; Antiviral activity 5.1 + TNFα 25 µM ([10]; 25 µM): 71.0 ± 4.8%; Antiviral activity 5.1 + TNFα 50 µM ([10]; 50 µM): 77.9 ± 4.9% |
